Data from ChEMBL document CHEMBL1795277, “Synthesis of novel pyrazolo[1,5-a]pyrazin-4(5H)-one derivatives and their inhibition against growth of A549 and H322 lung cancer cells” (Bioorg Med Chem Lett, 2011).
The source made the active and inactive calls. The calls are words filed in the database; no cut-off is given here.

Legend:
Type in all cases: functional, cell-based
A549 [1] = assay: Cytotoxicity against human A549 cells assessed as cell growth inhibition at 40 uM after 48 hrs by SRB assay
NCI-H322 [2] = assay: Cytotoxicity against human NCI-H322 cells assessed as cell growth inhibition at 40 uM after 48 hrs by SRB assay
A549 [3] = assay: Induction morphological changes in human A549 cells at 40 uM after 48 hrs by inverted microscopic analysis
NCI-H322 [4] = assay: Cytotoxicity against human NCI-H322 cells assessed as reduction of total cell quantity at 40 uM after 48 hrs by inverted microscopic analysis
A549 [5] = assay: Cytotoxicity against human A549 cells assessed as reduction of total cell quantity at 40 uM after 48 hrs by inverted microscopic analysis
[6] = (§1) Cytotoxicity against human NCI-H322 cells assessed as cell growth inhibition after 48 hrs by SRB assay; details: NCI-H322, 48 h
NCI-H322 [7] = assay: as §1
NCI-H322 [8] = assay: Induction necrosis in human NCI-H322 cells at 40 uM after 48 hrs by LDH release assay
NCI-H322 [9] = assay: Induction morphological changes in human NCI-H322 cells at 40 uM after 48 hrs by inverted microscopic analysis
A549 [10] = assay: Induction necrosis in human A549 cells at 40 uM after 48 hrs by LDH release assay
A549 [11] = assay: Cytotoxicity against human A549 cells assessed as cell growth inhibition after 48 hrs by SRB assay; details: for IC50: A549, 48 h

| SMILES | growth inhibition (GI) (A549 [1]) | growth inhibition (GI) (NCI-H322 [2]) | Activity (A549 [3]) | Activity (NCI-H322 [4]) | Activity (A549 [5]) | IC50 [6] | growth inhibition (GI) (NCI-H322 [7]) | Activity (NCI-H322 [8]) | Activity (NCI-H322 [9]) | Activity (A549 [10]) | growth inhibition (GI) (A549 [11]) | IC50 (A549 [11]) |
| --- | --- | --- | --- | --- | --- | --- | --- | --- | --- | --- | --- | --- |
| O=c1c2cc(-c3ccccc3)nn2cc(-c2ccccc2)n1CCOCCO | Active | Active | Active | Active | Active | 45.6 µM | Dose-dependent effect | inactive | Active | inactive | Dose-dependent effect | 41.1 µM |
| COc1ccc(-c2cc3c(=O)n(CCOCCO)c(-c4ccc(OC)cc4)cn3n2)cc1 | Active | Active | Active | Active | Active | 50.6 µM | Dose-dependent effect | inactive | Active | inactive | Dose-dependent effect | 34.7 µM |
| COc1ccc(-c2cc3c(=O)n(CCOCCO)c(-c4ccccc4)cn3n2)cc1 | Active | Active | – | – | – | 68.7 µM | – | – | – | – | – | 50.3 µM |
| COc1ccc(-c2cc3c(=O)n(CCOCCO)c(-c4ccc(Cl)cc4)cn3n2)cc1 | Active | Active | – | – | – | 76.9 µM | – | – | – | – | – | 49.7 µM |
| COc1ccc(-c2cn3nc(-c4ccccc4)cc3c(=O)n2CCOCCO)cc1 | Active | Active | – | – | – | 74.7 µM | – | – | – | – | – | 59 µM |
| O=c1c2cc(-c3ccc(Cl)cc3)nn2cc(-c2ccccc2)n1CCOCCO | Active | Active | Active | Active | Active | 29.4 µM | Dose-dependent effect | inactive | Active | inactive | Dose-dependent effect | 24.2 µM |
| O=c1c2cc(-c3ccccc3)nn2cc(-c2ccc(Cl)cc2)n1CCOCCO | Active | Active | – | – | – | 91 µM | – | – | – | – | – | 62.6 µM |
